Source: US20070135470A1, “Utilization of vinpocetine to avoid complications in particular those associated to hearing which occur with epilepsy, and treatment thereof” (UNIVERSIDAD NACIONAL AUTONOMA DE MEXICO, priority 2003, published 2007)

Tested on: epileptic cortical activity induced by PTZ in guinea pigs
Test: EEG recordings of cortical activity in PTZ-induced epilepsy
Type: in vivo, guinea pig
Conditions: ictal (about 2 min) and post-ictal (10, 20, 30, 50 min) periods; vinpocetine 2 mg/kg 4 h before PTZ; FIGS. 3, 4
Method: Experiments were performed in pigmented adult male guinea pigs initially weighing 349±38 g. ABRs recordings were used to evaluate the hearing status of each animal and EEG recordings to evaluate changes in cortical excitability. The ABR and EEG recordings were obtained following a method that we have previously reported (Nekrassov and Sitges, 2003). The Institutional Animal Use and Care Committee approved all experimental procedures.
Three types of recordings were performed in the anaesthetized animals, namely the ABR recordings elicited by a stimulus of high intensity (100 dB), the ABR recordings for determination of the auditory threshold and the EEG recordings.
Eight male guinea pigs were entered into this study. PTZ was dissolved in saline and vinpocetine in a saline acidified (with HCl) adjusted to pH 4 (with NaOH). Four hours after injecting guinea pigs with vehicle (acidified saline used to dissolve vinpocetine) the animals were anaesthetized and a first set of ABR and EEG recordings was taken before the injection (i.p) of the convulsing agent, PTZ. The animals were injected with PTZ (100 mg/kg) and about 2 min after injecting PTZ (ictal period) the EEG recording was taken. Then the other series of ABR and EEG recordings were taken at specific times within the post-ictal period. After two weeks the same series of recordings was taken but instead vehicle the animals were injected with vinpocetine (2 mg/kg) 4 hours before the injection of PTZ.
Vinpocetine inhibits all the changes induced by PTZ on the EEG. […] This dramatic change on the cortical activity induced by PTZ in the anaesthetized animals during convulsions is followed by a typical pattern of cortical activity characterized by rhythmic spike bursts of high amplitude. The duration time of this typical pattern of cortical activity, that is not accompanied by convulsions is referred as the post-ictal period.

## CCOC(=O)C1=C[C@]2(CC)CCCN3CCc4c(n1c1ccccc41)[C@@H]32 [Vinpocetine, ethyl apovincamine-22-oate]
  effect on changes on the cortical activity (EEG) induced by PTZ: completely inhibits
